Assay results: patent US20250290117A1, “MOLECULAR PHENOTYPIC ANTIMICROBIAL SUSCEPTIBILITY TESTING” (priority 2024, published 2025)

Columns and labels:
Type in all cases: cell-based
[1] = test system: Escherichia coli; test: Traditional culture-based antimicrobial susceptibility test
Description: Table 3 illustrates the results of an example antimicrobial agent susceptibility test of the current application versus a traditional culture-based antimicrobial agent susceptibility test for multiple Escherichia coli isolates, in accordance with one or more embodiments of the disclosure. These specimens underwent extraction or DNA purification prior to PCR. As in Tables 1 and 2, the results of the test of the current application are similar to the results from the traditional test. […]
Table 8 illustrates the results of an example antimicrobial agent susceptibility test of the current application versus a traditional culture-based antimicrobial agent susceptibility test for a low level positive with <10,000 cells/mL in the original specimen. These specimens were tested with direct PCR (e.g., no extraction DNA purification step prior to PCR) after 16 hours of incubation. As in Tables 1, 2, 3, 5, and 7, the results of the test are similar to the traditional test. […]

[2] = test system: Escherichia coli; test: Molecular phenotypic antimicrobial susceptibility test (extraction or DNA purification prior to PCR)
Method in brief: (§1)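 Semi-quantitative PCR read-out: growth was taken as resistance and its absence as sensitivity, with DNA either purified (e.g. bead-based) or amplified directly from lysed sample without extraction. Before PCR, 0.5 McFarland dilutions of incubated clinical specimens were held 12-16 hours with breakpoint-level antimicrobials in culture media, beside a drug-free control.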

[3] = test system: pathogens of clinical samples; test: Molecular phenotypic antimicrobial susceptibility test of clinical samples, direct PCR without a separate DNA purification step (Table 6)
Method in brief: as §1

[4] = test system: pathogens of clinical samples; test: Molecular phenotypic antimicrobial susceptibility test of clinical samples, extraction DNA purification step prior to PCR (Table 6)
Method in brief: as §1

[5] = E. coli, clinical sample of r10-r24
[6] = E. coli, clinical sample of r158-r172
[7] = E. faecalis, clinical sample of r93-r99
[8] = E. faecalis, clinical sample of r100-r106
[9] = E. faecalis, clinical sample of r107-r113
[10] = E. faecalis, clinical sample of r114-r120
[11] = E. faecalis, clinical sample of r151-r157
[12] = K. aerogenes, clinical sample of r136-r150
[13] = K. pneumoniae, clinical sample of r121-r135
[14] = M. morganii, clinical sample of r55-r69
[15] = M. morganii, clinical sample of r70-r84
[16] = P. mirabilis, clinical sample of r25-r39
[17] = P. mirabilis, clinical sample of r40-r54

O=C(O)c1cn(C2CC2)c2cc(N3CCNCC3)c(F)cc2c1=O [Ciprofloxacin]
Traditional Culture Result ([1]; E. coli isolate 1 (Table 3)): Resistant
Traditional Culture Result ([1]; E. coli isolate 2 (Table 3)): Resistant
Traditional Culture Result ([1]; E. coli isolate 3 (Table 3)): Resistant
Traditional Culture Result ([1]; E. coli isolate 4 (Table 3)): Resistant
Traditional Culture Result ([1]; E. coli isolate 5 (Table 3)): Sensitive
Traditional Culture Result ([1]; E. coli isolate JJ1887): Resistant
Ct at Sensitive Breakpoint ([2]; E. coli isolate 1, Ct at control (average) 21.238): 20.351
Molecular Antimicrobial Susceptibility Result ([2]; E. coli isolate 1, at sensitive breakpoint): Resistant
Ct at Sensitive Breakpoint ([2]; E. coli isolate 2, Ct at control (average) 21.270): 19.988
Molecular Antimicrobial Susceptibility Result ([2]; E. coli isolate 2, at sensitive breakpoint): Resistant
Ct at Sensitive Breakpoint ([2]; E. coli isolate 3, Ct at control (average) 22.0995): 21.394
Molecular Antimicrobial Susceptibility Result ([2]; E. coli isolate 3, at sensitive breakpoint): Resistant
Ct at Sensitive Breakpoint ([2]; E. coli isolate 4, Ct at control (average) 17.5733): 17.68
Molecular Antimicrobial Susceptibility Result ([2]; E. coli isolate 4, at sensitive breakpoint): Resistant
Ct at Sensitive Breakpoint ([2]; E. coli isolate 5, Ct at control (average) 21.0933): 33.02
Molecular Antimicrobial Susceptibility Result ([2]; E. coli isolate 5, at sensitive breakpoint): Sensitive (Antimicrobial wells with pathogen load detected below the control wells (typically >2 cycle thresholds later) may be reported as Sensitive)

C[C@@H]1O[C@@H]1P(=O)(O)O [Fosfomycin]
Molecular Antibiotic Susceptibility Result [3, 5]: Sensitive (Antimicrobial wells with pathogen load detected below the control wells (typically >2 cycle thresholds later) may be reported as Sensitive)
Ct ([3]; E. coli, clinical sample of r10-r24, Ct control avg 12.97): 25.481
Molecular Antibiotic Susceptibility Result [3, 6]: Sensitive (Antimicrobial wells with pathogen load detected below the control wells (typically >2 cycle thresholds later) may be reported as Sensitive)
Ct ([3]; E. coli, clinical sample of r158-r172, Ct control avg 12.894): 27.932
Molecular Antibiotic Susceptibility Result [3, 7]: Sensitive (Antimicrobial wells with pathogen load detected below the control wells (typically >2 cycle thresholds later) may be reported as Sensitive)
Ct ([3]; E. faecalis, clinical sample of r93-r99, Ct control avg 22.011): 30.578
Molecular Antibiotic Susceptibility Result [3, 8]: sensitive
Ct ([3]; E. faecalis, clinical sample of r100-r106, Ct control avg 21.027): 33.882
Molecular Antibiotic Susceptibility Result [3, 9]: Resistant
Ct ([3]; E. faecalis, clinical sample of r107-r113, Ct control avg 20.529): 19.527
Molecular Antibiotic Susceptibility Result [3, 10]: Sensitive (Antimicrobial wells with pathogen load detected below the control wells (typically >2 cycle thresholds later) may be reported as Sensitive)
Ct ([3]; E. faecalis, clinical sample of r114-r120, Ct control avg 20.909): 27.178
Molecular Antibiotic Susceptibility Result [3, 11]: Sensitive (Antimicrobial wells with pathogen load detected below the control wells (typically >2 cycle thresholds later) may be reported as Sensitive)
Ct ([3]; E. faecalis, clinical sample of r151-r157, Ct control avg 18.551): 32.048
Molecular Antibiotic Susceptibility Result [3, 12]: Sensitive (Antimicrobial wells with pathogen load detected below the control wells (typically >2 cycle thresholds later) may be reported as Sensitive)
Ct ([3]; K. aerogenes, clinical sample of r136-r150, Ct control avg 13.854): 19.581
Molecular Antibiotic Susceptibility Result [3, 13]: Resistant
Ct ([3]; K. pneumoniae, clinical sample of r121-r135, Ct control avg […]): 14.895
Molecular Antibiotic Susceptibility Result [3, 14]: Sensitive (Antimicrobial wells with pathogen load detected below the control wells (typically >2 cycle thresholds later) may be reported as Sensitive)
Ct ([3]; M. morganii, clinical sample of r55-r69, Ct control avg 12.09): 18.368
Molecular Antibiotic Susceptibility Result [3, 15]: Sensitive (Antimicrobial wells with pathogen load detected below the control wells (typically >2 cycle thresholds later) may be reported as Sensitive)
Ct ([3]; M. morganii, clinical sample of r70-r84, Ct control avg 11.677): 28.123
Molecular Antibiotic Susceptibility Result [3, 16]: Sensitive (Antimicrobial wells with pathogen load detected below the control wells (typically >2 cycle thresholds later) may be reported as Sensitive)
Ct ([3]; P. mirabilis, clinical sample of r25-r39, Ct control avg 11.801): 26.9
Molecular Antibiotic Susceptibility Result [3, 17]: Sensitive (Antimicrobial wells with pathogen load detected below the control wells (typically >2 cycle thresholds later) may be reported as Sensitive)
Ct ([3]; P. mirabilis, clinical sample of r40-r54, Ct control avg 10.06): 27.935
Traditional Culture Results ([1]; E. coli #1 - WDCM 00090 - 6.2×E3): Sensitive
Traditional Culture Results ([1]; E. coli #2 - WDCM 00090 - 6.2×E3): Sensitive
Molecular Antibiotic Susceptibility Result [4, 5]: Sensitive (Antimicrobial wells with pathogen load detected below the control wells (typically >2 cycle thresholds later) may be reported as Sensitive)
Ct ([4]; E. coli, clinical sample of r10-r24, Ct Control Avg 18.112): 28.111
Molecular Antibiotic Susceptibility Result [4, 6]: Sensitive (Antimicrobial wells with pathogen load detected below the control wells (typically >2 cycle thresholds later) may be reported as Sensitive)
Ct ([4]; E. coli, clinical sample of r158-r172, Ct Control Avg 20.146): 30.261
Molecular Antibiotic Susceptibility Result [4, 7]: Sensitive (Antimicrobial wells with pathogen load detected below the control wells (typically >2 cycle thresholds later) may be reported as Sensitive)
Ct ([4]; E. faecalis, clinical sample of r93-r99, Ct Control Avg 22.987): 35.358
Molecular Antibiotic Susceptibility Result [4, 8]: sensitive
Ct ([4]; E. faecalis, clinical sample of r100-r106, Ct Control Avg 23.073): 36.898
Molecular Antibiotic Susceptibility Result [4, 9]: Resistant
Ct ([4]; E. faecalis, clinical sample of r107-r113, Ct Control Avg 22.144): 20.142
Molecular Antibiotic Susceptibility Result [4, 10]: Sensitive (Antimicrobial wells with pathogen load detected below the control wells (typically >2 cycle thresholds later) may be reported as Sensitive)
Ct ([4]; E. faecalis, clinical sample of r114-r120, Ct Control Avg 20.822): 30.598
Molecular Antibiotic Susceptibility Result [4, 11]: Sensitive (Antimicrobial wells with pathogen load detected below the control wells (typically >2 cycle thresholds later) may be reported as Sensitive)
Ct ([4]; E. faecalis, clinical sample of r151-r157, Ct Control Avg 20.56): 37.968
Molecular Antibiotic Susceptibility Result [4, 12]: Sensitive (Antimicrobial wells with pathogen load detected below the control wells (typically >2 cycle thresholds later) may be reported as Sensitive)
Ct ([4]; K. aerogenes, clinical sample of r136-r150, Ct Control Avg 19.994): 25.008
Molecular Antibiotic Susceptibility Result [4, 13]: Resistant
Ct ([4]; K. pneumoniae, clinical sample of r121-r135, Ct Control Avg 24.272): 18.711
Molecular Antibiotic Susceptibility Result [4, 14]: Sensitive (Antimicrobial wells with pathogen load detected below the control wells (typically >2 cycle thresholds later) may be reported as Sensitive)
Ct ([4]; M. morganii, clinical sample of r55-r69, Ct Control Avg 28.86): 31.935
Molecular Antibiotic Susceptibility Result [4, 15]: Sensitive (Antimicrobial wells with pathogen load detected below the control wells (typically >2 cycle thresholds later) may be reported as Sensitive)
Ct ([4]; M. morganii, clinical sample of r70-r84, Ct Control Avg 27.053): 37.955
Molecular Antibiotic Susceptibility Result [4, 16]: Sensitive (Antimicrobial wells with pathogen load detected below the control wells (typically >2 cycle thresholds later) may be reported as Sensitive)
Ct ([4]; P. mirabilis, clinical sample of r25-r39, Ct Control Avg 26.064): 27.051
Molecular Antibiotic Susceptibility Result [4, 17]: Sensitive (Antimicrobial wells with pathogen load detected below the control wells (typically >2 cycle thresholds later) may be reported as Sensitive)
Ct ([4]; P. mirabilis, clinical sample of r40-r54, Ct Control Avg 26.987): 31.981
